Data on 14 molecules can be found in patent US11008572B2, “Methods and compositions for modulating splicing” (SKYHAWK THERAPEUTICS, INC., priority 2017, dated 2021).

The structures appear in SMILES notation. Like-named read-outs stand apart in the source and are kept apart here.

Assay type in all cases: cell-based
The test system of assay [1] is A-673 cells. The assay is described as follows: Cell viability, crystal violet staining. To be noted: Homo sapiens, A673, cell viability. The method in brief: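 Readout is absorbance at 570 nm of crystal violet, taken up in 0.1 M sodium citrate in 50% ethanol after staining with 0.5% dye in 25% methanol. Plates held 5×10^3 cells per well, and compounds were added one day after seeding for 72 hours. Data are relative to vehicle, mean±SE.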

For assay [2], the system named is FOXM1^A2 mRNA and FOXM1^BC mRNA. The assay is described as follows: Splicing assay (FOXM1), qPCR of isoform mRNAs. To be noted: for IC50: FoxM1 BC mRNA decrease (exon included). The method in brief: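 RT-qPCR read-out after 24 h compound exposure at 37° C., 0.2% DMSO, top dose 10 μM with 4-fold 8-point dilutions, 20,000 cells per well. Copy numbers from plasmid standard curves, PPIA-normalized, expressed as isoform ratio relative to DMSO.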
Background: In qPCR the cycle at which signal appears reflects the starting amount.

The test system of assay [3] is IKBKAP^Δ20 mRNA. The assay is described as follows: IKBKAP splicing assay, qPCR. The following applies: 24 hours of incubation. The procedure: (§1) Various cells lines were treated with the SMSMs described herein. RNA was then isolated, cDNA synthesized, qPCR performed and the levels of IKBKAP targets of the SMSMs were determined.
(§2) On the day of the experiment, a 96-well plate was seeded with the cell lines of interest. The cells were diluted with full growth media to a concentration of 2.0×10^5 cells/mL and 100 μL of cells were added to each well (20,000 cells per well). The cells were treated with a compound immediately after plating.
(§3) The compounds were then added to the cell plate using the HP compound dispenser. In the initial experiment, a top concentration of 10 μM and an 8 point 4-fold dilution scheme was used. The stock compounds were made at a concentration of 5 mM, and the DMSO concentration was set to 0.2%. DMSO was used to normalize all the compound-containing wells and the untreated cells.
(§4) The treated cells were incubated at 37° C. in a 5% CO2 incubator for the desired amount of time. Plates were placed in a plastic bag with a wet paper towel to prevent evaporation.
(§5) RNA was isolated using the Cells to CT kit (ThermoFisher, AM1728). The cells were washed once with 100 μL cold PBS. 50 μL of lysis buffer was added to each well/tube (49.5 μL lysis buffer+0.5 μL DNase I per well/tube). The lysis reaction was mixed and incubated at room temperature for 5 minutes. 5 μL of stop solution was added directly into each cell lysis reaction and mixed by pipetting up and down 5 times. The plates/tubes were incubated at room temperature for 2 minutes then placed on ice if the cDNA synthesis was to be performed immediately. Otherwise, the plates/tubes were stored at −80° C.
(§6) cDNA synthesis reactions were then performed. 40 μL RT master mix was added to PCR tubes or plate wells. 10 μL of RNA was added to each tube/well. The RT thermal cycler program was then run and tubes or plate wells were incubated at 37° C. for 1 hour, then at 95° C. for 5 minutes to deactivate the enzyme.
(§7) The qPCR was performed using a QuantStudio 6 instrument (ThermoFisher) and the following cycling conditions and according to the tables below. All samples and standards were analyzed in triplicate. Cycle 1: 2 minutes at 50° C. Cycle 2: 10 minutes at 95° C. Cycle 3 (repeat 40 times): 15 seconds at 95° C., 1 minute at 60° C.
(§8) The determined IKBKAP^FL and […] isoform quantities were then used to determine the IKBKAP^FL: IKBKAP^Δ20 ratio at increasing SMSM compound concentrations. The PPIA quantities were used in the normalization to account of cell proliferation effects of the compounds.
(§9) An assay to measure the IKBKAP^FL mRNA and IKBKAP^Δ20 mRNA simultaneously in cell wells was performed. The RNA values were measured relative to DMSO control and also included a housekeeping gene, PPIA to ensure data was consistent. The mRNA values were measured after 24 hours of incubation with the SMSM compounds.

The subject of assay [4] is IKBKAP^FL mRNA. The assay is described as follows: IKBKAP splicing assay, qPCR. The following applies: 24 hours of incubation. The procedure:
as §1, §2, §3, §4, §5, §6, §7, §8, §9

Setting [5] is: read-out: A-673 IC50 (nM) Cell viability.
The mark [6] stands for this setting: read-out: Splice IC50 (nM) FoxM1 BC mRNA decrease (exon included).
[7] abbreviates: read-out: Splice EC50 (nM) FoxM1 A mRNA increase (exon excluded).
Setting [8] is: read-out: A-673 IC50 (nM), Cell viability.
Where [9] appears, read: 24 h, 0.1-1000 nM, 24 hours, read-out: Splice IC50 (nM), FoxM1 BC mRNA decrease (exon included).
[10] abbreviates: FoxM1 A mRNA increase (exon excluded), 0.1-1000 nM, 24 hours, read-out: Splice EC50 (nM), FoxM1 A mRNA increase (exon excluded).

In the case of `C[C@]12CC[C@](C)(C[C@@H](Oc3ccc(-c4ccc(-c5cn[nH]c5)cc4O)nn3)C1)N2` [compound 152, 2-(6-(((1R,3s,5S)-1,5-dimethyl-8-azabicyclo[3.2.1]octan-3-yl)oxy)pyridazin-3-yl)-5-(1H-pyrazol-4-yl)phenol], the IC50 (in general, the concentration needed to halve the response being measured) in assay [1] (setting [5]) is 101 to 250 nM; in assay [2] (setting [6]) it was 10 to 100 nM; in assay [3], greater than 1000 nM. The results for the EC50 in assay [2] (setting [7]) and in assay [4] were 10 to 100 nM and 351 to 1000 nM, respectively.
As for `CN(c1ccc(-c2ccc(-c3cn[nH]c3)cc2O)nn1)[C@@H]1C[C@H]2COC[C@@H](C1)N2` [compound 154, 2-(6-(((1R,5S,7r)-3-oxa-9-azabicyclo[3.3.1]nonan-7-yl)(methyl)amino)pyridazin-3-yl)-5-(1H-pyrazol-4-yl)phenol], the half-maximal inhibitory concentration (IC50) in assay [1] (setting [5]) and in assay [2] (setting [6]) was 10 to 100 nM throughout. The EC50 – broadly, the concentration needed to bring the measured effect to its halfway point – in assay [2] (setting [7]) lay within 10 to 100 nM; in assay [4], 351 to 1000 nM.
As for `CN(c1ccc(-c2cc(F)c(-c3cn[nH]c3)cc2O)nn1)[C@@H]1C[C@H]2CC[C@@H](C1)N2` [compound 161, 2-(6-(((1R,3s,5S)-8-azabicyclo[3.2.1]octan-3-yl)(methyl)amino)pyridazin-3-yl)-4-fluoro-5-(1H-pyrazol-4-yl)phenol], the figures for the IC50 in assay [1] (setting [5]), in assay [2] (setting [6]) and in assay [3] were less than 10 nM, less than 10 nM and less than 200 nM, respectively. Besides, the results for the EC50 in assay [2] (setting [7]) and in assay [4] were less than 10 nM and less than 100 nM, respectively.
Turning to `CN(c1ccc(-c2cc3cccnc3cc2O)nn1)[C@@H]1C[C@H]2CC[C@@H](C1)N2` [compound 162, 6-(6-(((1R,3s,5S)-8-azabicyclo[3.2.1]octan-3-yl)(methyl)amino)pyridazin-3-yl)quinolin-7-ol], the IC50 in assay [1] (setting [5]) fell in the range of 251 to 500 nM; in assay [3], 201 to 1000 nM.
In the case of `CN(c1ccc(-c2ccc(-n3ccnc3)cc2O)nn1)[C@@H]1C[C@H]2CC[C@@H](C1)N2` [compound 217, 2-(6-(((1R,3s,5S)-8-azabicyclo[3.2.1]octan-3-yl)(methyl)amino)pyridazin-3-yl)-5-(1H-imidazol-1-yl)phenol], the IC50 in assay [1] (setting [8]) fell in the range of 10 to 100 nM; in assay [2] (setting [9]), 10 to 100 nM; in assay [3], 201 to 1000 nM. The EC50 is less than 10 nM in assay [2] (setting [10]) and 351 to 1000 nM in assay [4].
With `Cc1cn(-c2ccc(-c3ccc(N(C)[C@@H]4C[C@H]5CC[C@@H](C4)N5)nn3)c(O)c2)cn1` [compound 218, 2-(6-(((1R,3s,5S)-8-azabicyclo[3.2.1]octan-3-yl)(methyl)amino)pyridazin-3-yl)-5-(4-methyl-1H-imidazol-1-yl)phenol], the IC50 in assay [1] (setting [8]) is 10 to 100 nM; in assay [2] (setting [9]) it was less than 10 nM; in assay [3], greater than 1000 nM. Further, the figures for the EC50 in assay [2] (setting [10]) and in assay [4] were less than 10 nM and 351 to 1000 nM, respectively.
In the case of `CN(c1ccc(-c2ccc(-c3cc(=O)n(C)cn3)cc2O)nn1)[C@H]1C[C@]2(C)CCC[C@](C)(C1)N2` [compound 266, 6-(4-(6-(((1R,3s,5S)-1,5-dimethyl-9-azabicyclo[3.3.1]nonan-3-yl)(methyl)amino)pyridazin-3-yl)-3-hydroxyphenyl)-3-methylpyrimidin-4(3H)-one], the IC50 in assay [1] (setting [8]) is 10 to 100 nM; in assay [3], less than 200 nM. This molecule also yielded an EC50 in assay [4] of less than 100 nM.
In the case of `Oc1cc(-c2cn[nH]c2)c(F)cc1-c1ccc(O[C@@H]2C[C@H]3CCC[C@@H](C2)N3)nn1` [compound 278, 2-(6-(((1R,3s,5S)-9-azabicyclo[3.3.1]nonan-3-yl)oxy)pyridazin-3-yl)-4-fluoro-5-(1H-pyrazol-4-yl)phenol], the figures for the IC50 in assay [1] (setting [8]) and in assay [3] were 10 to 100 nM and less than 200 nM, respectively. Moreover, the EC50 in assay [4] lay in the range of 101 to 350 nM.
For the molecule `[2H]C([2H])([2H])n1ccc(-c2ccc(-c3ccc(N(C)C4CC5CCCC(C4)N5)nn3)c(O)c2)cc1=O` [compound 284, 4-(4-(6-(((1R,3s,5S)-9-azabicyclo[3.3.1]nonan-3-yl)(methyl)amino)pyridazin-3-yl)-3-hydroxyphenyl)-1-(methyl-d3)pyridin-2(1H)-one], the half-maximal inhibitory concentration (IC50) in assay [1] (setting [8]) and in assay [2] (setting [9]) was less than 10 nM each time. In addition, the EC50 in assay [2] (setting [10]) was greater than 1000 nM.
On to `CN(c1ccc(-c2cc(F)c(-c3ccn(C)c(=O)c3)cc2O)nn1)[C@@H]1C[C@H]2CCC[C@@H](C1)N2` [compound 285, 4-(4-(6-(((1R,3s,5S)-9-azabicyclo[3.3.1]nonan-3-yl)(methyl)amino)pyridazin-3-yl)-2-fluoro-5-hydroxyphenyl)-1-methylpyridin-2(1H)-one], for which the IC50 in assay [1] (setting [8]) and in assay [2] (setting [9]) was less than 10 nM throughout. In assay [2] (setting [10]), the EC50 was greater than 1000 nM.
In the case of `CN(c1ccc(-c2cc3oc(C(=O)NC4CC4)cc3cc2O)nn1)[C@@H]1C[C@H]2CCC[C@@H](C1)N2` [compound 296, 6-(6-(((1R,3s,5S)-9-azabicyclo[3.3.1]nonan-3-yl)(methyl)amino)pyridazin-3-yl)-N-cyclopropyl-5-hydroxybenzofuran-2-carboxamide], the results for the IC50 in assay [1] (setting [8]) and in assay [2] (setting [9]) were 101 to 250 nM and 10 to 100 nM, respectively. The EC50 in assay [2] (setting [10]) was less than 10 nM.
For `[2H]C([2H])([2H])c1ncc(-c2cc(O)c(-c3ccc(N(C)[C@H]4C[C@]5(C)CC[C@](C)(C4)N5)nn3)cc2F)o1` [compound 304, 2-(6-(((1R,3s,5S)-1,5-dimethyl-8-azabicyclo[3.2.1]octan-3-yl)(methyl)amino)pyridazin-3-yl)-4-fluoro-5-(2-(methyl-d3)oxazol-5-yl)phenol], in that order: 10 to 100 nM, less than 10 nM and greater than 1000 nM.
On to `CN(c1ccc(-c2cc(F)c(-c3cc[nH]c(=O)c3)cc2O)nn1)[C@H]1C[C@]2(C)CCC[C@](C)(C1)N2` [compound 307, 4-(4-(6-(((1R,3s,5S)-1,5-dimethyl-9-azabicyclo[3.3.1]nonan-3-yl)(methyl)amino)pyridazin-3-yl)-2-fluoro-5-hydroxyphenyl)pyridin-2(1H)-one], for which the IC50 in assay [1] (read-out: A-673 IC50 (nM), cell viability) was 10 to 100 nM; in assay [2] (read-out: Splice IC50 (nM), FoxM1 BC mRNA decrease (exon included)) it was less than 10 nM. In assay [2] (read-out: Splice EC50 (nM), FoxM1 A mRNA increase (exon excluded)), the concentration for a half-maximal effect (EC50) was less than 10 nM.
Consider `CN(c1ccc(-c2ccc(-c3cn[nH]c3)cc2O)nn1)C1[C@H]2CN(C(=O)CCN)C[C@@H]12` (stereo partly drawn) [compound 315, 3-amino-1-((1R,5S)-6-((6-(2-hydroxy-4-(1H-pyrazol-4-yl)phenyl)pyridazin-3-yl)(methyl)amino)-3-azabicyclo[3.1.0]hexan-3-yl)propan-1-one], for which the IC50 in assay [3] was greater than 1000 nM. This molecule returned an EC50 in assay [4] greater than 1000 nM.
